In patent publication US10213433B2 (AbbVie Inc., priority 2010, dated 2019) one finds chromatographic logD and Ki data, which are given here for nine molecules.

Series [1] is described as follows: log D at pH 7.4 by an HPLC method. The series is classed as physicochemical. The text has this: Table 2 below presents data for log D (a parameter related to lipophilicity) at pH 7.4, as determined by an HPLC method, for representative compounds.
Series [2] addresses Bcl-2 protein (Homo sapiens (Human), UniProt P10415). Put plainly: Bcl-2 binding TR-FRET (Time-Resolved Fluorescence-Resonance-Energy-Transfer) assay. As to conditions: inhibition constant for binding to Bcl-2 protein. The source says: The smaller the Ki value, the greater is the binding affinity.
Background: Time-resolved FRET reads energy transfer from a long-lived donor to a nearby acceptor.

Bcl-2 protein, sequence (P10415 whole entry): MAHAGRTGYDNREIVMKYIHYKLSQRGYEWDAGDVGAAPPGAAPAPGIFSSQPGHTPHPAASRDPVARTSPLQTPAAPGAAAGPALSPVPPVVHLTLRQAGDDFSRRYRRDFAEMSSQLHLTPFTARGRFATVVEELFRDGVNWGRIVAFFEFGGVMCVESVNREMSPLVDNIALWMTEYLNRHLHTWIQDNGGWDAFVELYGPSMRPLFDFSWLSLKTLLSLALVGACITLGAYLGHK

As usually defined, the chromatographic logD is lipophilicity estimated from chromatographic retention. Lower therefore signals a more hydrophilic compound. A word on the Ki: it is the equilibrium dissociation constant of an inhibitor or competing ligand from its target. The low end stands for a stronger hold on the target, the high end for a looser hold on the target. `CC1(C)CCC(CN2CCN(c3ccc(C(=O)NS(=O)(=O)c4ccc(OCC5COCCO5)c([N+](=O)[O-])c4)c(Oc4cnc5[nH]ccc5c4)c3)CC2)=C(c2ccc(Cl)cc2)C1` (centres unmarked) [Compound 12, 4-(4-{[2-(4-chlorophenyl)-4,4-dimethylcyclohex-1-en-1-yl]methyl}piperazin-1-yl)-N-{[4-(1,4-dioxan-2-ylmethoxy)-3-nitrophenyl]sulfonyl}-2-(1H-pyrrolo[2,3-b]pyridin-5-yloxy)benzamide] showed a chromatographic logD in series [1] of 5.17. For the same molecule, in series [2], the Ki is below 0.01 nM.

In turn, `CC1(C)CCC(CN2CCN(c3ccc(C(=O)NS(=O)(=O)c4ccc(OCC5(F)CCOCC5)c([N+](=O)[O-])c4)c(Oc4cnc5[nH]ccc5c4)c3)CC2)=C(c2ccc(Cl)cc2)C1` [Compound 37, 4-(4-{[2-(4-chlorophenyl)-4,4-dimethylcyclohex-1-en-1-yl]methyl}piperazin-1-yl)-N-({4-[(4-fluorotetrahydro-2H-pyran-4-yl)methoxy]-3-nitrophenyl}sulfonyl)-2-(1H-pyrrolo[2,3-b]pyridin-5-yloxy)benzamide] returned a chromatographic logD in series [1] of 5.27. Besides, the Ki in series [2] was below 0.01 nM.

The molecule `CC1(C)CCC(CN2CCN(c3ccc(C(=O)NS(=O)(=O)c4ccc(OCC5(F)CCOCC5)c(Cl)c4)c(Oc4cnc5[nH]ccc5c4)c3)CC2)=C(c2ccc(Cl)cc2)C1` [Compound 286, N-({3-chloro-4-[(4-fluorotetrahydro-2H-pyran-4-yl)methoxy]phenyl}sulfonyl)-4-(4-{[2-(4-chlorophenyl)-4,4-dimethylcyclohex-1-en-1-yl]methyl}piperazin-1-yl)-2-(1H-pyrrolo[2,3-b]pyridin-5-yloxy)benzamide] returned a chromatographic logD in series [1] of 5.66. Also, the Ki in series [2] is below 0.01 nM.

`CC1(C)CCC(CN2CCN(c3ccc(C(=O)NS(=O)(=O)c4ccc(OCC5CCOCC5)c([N+](=O)[O-])c4)c(Oc4cnc5[nH]ccc5c4)c3)CC2)=C(c2ccc(Cl)cc2)C1` [Compound 24, 4-(4-{[2-(4-chlorophenyl)-4,4-dimethylcyclohex-1-en-1-yl]methyl}piperazin-1-yl)-N-{[3-nitro-4-(tetrahydro-2H-pyran-4-ylmethoxy)phenyl]sulfonyl}-2-(1H-pyrrolo[2,3-b]pyridin-5-yloxy)benzamide] displayed a chromatographic logD in series [1] of 5.72. For the same molecule, the Ki in series [2] was below 0.01 nM.

In turn, `CC1(C)CCC(CN2CCN(c3ccc(C(=O)NS(=O)(=O)c4ccc(NCCCN(C5CC5)C5COC5)c([N+](=O)[O-])c4)c(Oc4cnc5[nH]ccc5c4)c3)CC2)=C(c2ccc(Cl)cc2)C1` [Compound 311, 4-(4-{[2-(4-chlorophenyl)-4,4-dimethylcyclohex-1-en-1-yl]methyl}piperazin-1-yl)-N-{[4-({3-[cyclopropyl(oxetan-3-yl)amino]propyl}amino)-3-nitrophenyl]sulfonyl}-2-(1H-pyrrolo[2,3-b]pyridin-5-yloxy)benzamide] had a chromatographic logD in series [1] of 5.6. This molecule displayed a Ki in series [2] below 0.01 nM.

On to `CN1CCC[C@H]1C(=O)N1CCC(COc2ccc(S(=O)(=O)NC(=O)c3ccc(N4CCN(CC5=C(c6ccc(Cl)cc6)CC(C)(C)CC5)CC4)cc3Oc3cnc4[nH]ccc4c3)cc2Cl)CC1` [Compound 312, N-[(3-chloro-4-{[1-(1-methyl-L-prolyl)piperidin-4-yl]methoxy}phenyl)sulfonyl]-4-(4-{[2-(4-chlorophenyl)-4,4-dimethylcyclohex-1-en-1-yl]methyl}piperazin-1-yl)-2-(1H-pyrrolo[2,3-b]pyridin-5-yloxy)benzamide], for which, in series [1], the chromatographic logD was determined as 6.47. Also, the Ki in series [2] was below 0.01 nM.

`CC1(C)CCC(CN2CCN(c3ccc(C(=O)NS(=O)(=O)c4ccc(OCC5(F)CCN(C6COC6)CC5)c(Cl)c4)c(Oc4cnc5[nH]ccc5c4)c3)CC2)=C(c2ccc(Cl)cc2)C1` [Compound 322, N-[(3-chloro-4-{[4-fluoro-1-(oxetan-3-yl)piperidin-4-yl]methoxy}phenyl)sulfonyl]-4-(4-{[2-(4-chlorophenyl)-4,4-dimethylcyclohex-1-en-1-yl]methyl}piperazin-1-yl)-2-(1H-pyrrolo[2,3-b]pyridin-5-yloxy)benzamide] returned a chromatographic logD in series [1] of 5.48. Moreover, the Ki in series [2] was below 0.01 nM.

In series [1], `CC1(C)CCC(CN2CCN(c3ccc(C(=O)NS(=O)(=O)c4cnc(OCC5(F)CCN(C6COC6)CC5)c(Cl)c4)c(Oc4cnc5[nH]ccc5c4)c3)CC2)=C(c2ccc(Cl)cc2)C1` [Compound 277, N-[(5-chloro-6-{[4-fluoro-1-(oxetan-3-yl)piperidin-4-yl]methoxy}pyridin-3-yl)sulfonyl]-4-(4-{[2-(4-chlorophenyl)-4,4-dimethylcyclohex-1-en-1-yl]methyl}piperazin-1-yl)-2-(1H-pyrrolo[2,3-b]pyridin-5-yloxy)benzamide] registered a chromatographic logD of 5.26. The same molecule came in with a Ki in series [2] below 0.01 nM.

In the case of `CC1(C)CCC(CN2CCN(c3ccc(C(=O)NS(=O)(=O)c4cnc(OCC5(F)CCOCC5)c(C(F)(F)F)c4)c(Oc4cnc5[nH]ccc5c4)c3)CC2)=C(c2ccc(Cl)cc2)C1` [Compound 208, 4-(4-{[2-(4-chlorophenyl)-4,4-dimethylcyclohex-1-en-1-yl]methyl}piperazin-1-yl)-N-{[6-[(4-fluorotetrahydro-2H-pyran-4-yl)methoxy]-5-(trifluoromethyl)pyridin-3-yl]sulfonyl}-2-(1H-pyrrolo[2,3-b]pyridin-5-yloxy)benzamide], the chromatographic logD in series [1] was 5.57.
